Like-named read-outs stand apart in the source and are kept apart here.
Assays:
human SGLT1 = target: T1, human SGLT1 (Homo sapiens, UniProt P13866); test: Inhibition of sodium dependent [14C]-AMG uptake in CHO cells stably expressing human SGLT1; format: cell-based; details: CHO cells expressing human SGLT1, [14C]-AMG uptake
T1 sequence (P13866 1-664): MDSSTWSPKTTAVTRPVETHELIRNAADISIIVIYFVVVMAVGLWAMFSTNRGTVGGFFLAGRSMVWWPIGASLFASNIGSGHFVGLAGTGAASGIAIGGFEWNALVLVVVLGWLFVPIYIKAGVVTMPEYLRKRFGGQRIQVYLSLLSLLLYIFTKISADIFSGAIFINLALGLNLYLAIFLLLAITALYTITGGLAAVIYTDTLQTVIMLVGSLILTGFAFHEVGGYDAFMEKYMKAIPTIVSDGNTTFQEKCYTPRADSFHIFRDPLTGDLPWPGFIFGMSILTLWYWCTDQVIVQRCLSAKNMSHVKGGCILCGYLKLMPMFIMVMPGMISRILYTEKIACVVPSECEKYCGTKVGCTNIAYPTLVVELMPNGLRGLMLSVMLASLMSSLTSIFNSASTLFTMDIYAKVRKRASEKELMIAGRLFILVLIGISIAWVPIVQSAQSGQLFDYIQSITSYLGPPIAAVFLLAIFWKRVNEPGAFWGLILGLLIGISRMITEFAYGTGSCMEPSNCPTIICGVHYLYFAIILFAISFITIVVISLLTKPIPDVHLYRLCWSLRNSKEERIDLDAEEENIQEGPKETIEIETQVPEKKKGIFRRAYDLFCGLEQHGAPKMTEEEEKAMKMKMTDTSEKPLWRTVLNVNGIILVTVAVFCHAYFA
Experimental: (§1) In the in vitro evaluation method according to the present invention, the human SGLT2 and SGLT1 sequences were transfected to Chinese hamster ovary cells to express stably. By measuring inhibition of the sodium dependent adsorption of [^14C]-labeled […]-D-glucopyranoside (AMG) into the cells, the half-inhibition concentration IC50 was determined.
(§2) Buffer A (KRH-Na+): 120 mM NaCl, 4.7 mM KCl, 1.2 mM MgCl2, 2.2 mM CaCl2, 10 mM HEPES (PH 7.4 with 1 mM Tris).
(§3) Buffer A− (KRH-NMG): 120 mM NMG, 4.7 mM KCl, 1.2 mM MgCl2, 2.2 mM CaCl2, 10 mM HEPES (PH 7.4 with 1 mM Tris).
(§4) Buffer D: 120 mM NaCl, 4.7 mM KCl, 1.2 mM MgCl2, 2.2 mM CaCl2, 10 mM HEPES, 0.5 mM phlorizin (PH 7.4 with 1 mM Tris).
(§5) Assay method: Human SGLT2 and SGLT1 sequences were stably expressed in the CHO cells. The cell culture was conducted in a 96-well plate for 12 hr. The plate was washed with KRH-Na+ (Buffer A) or KRH-NMG (Buffer A−) buffering solution for three times, 200 μL/well. Then the plate was washed with a buffering solution containing Buffer A or Buffer A− plus [^14C]-AMG (10 μCi/mL), 100 μL/well. The cell culture was conducted at 37° C. for 1 h. Then, 100 μL of ice pre-cooled buffering solution (Buffer D) was added to terminate the assay. The plate was washed for 5 times. Then 100 mM NaOH solution was added, 20 μL/well, and the centrifugation at 600 rpm was conducted for 5 mins. Then Microscint 40 solution was added, 80 μl/well, and the centrifugation at 600 rpm was conducted for 5 mins. Finally, the radioactivity of [^14C]-AMG was detected with MicroBeta Trilux (purchased from PerkinElmer Co. Ltd.) according to the scintillation counting method, and the half-inhibition concentration IC50 was calculated.
(§6) The above assays were entrusted to Shanghai ChemPartner Co. Ltd.

[1] = Rat in vivo pharmacokinetic assay (IV and PO); design: species or system SD rats; details: plasma, male SD rat; for half-life: read-out: T1/2 (half-life) (converted); for bioavailability: PO 5 mg/kg versus IV 2 mg/kg, read-out: F % (absolute bioavailability)
Experimental: Rat In Vivo Pharmacokinetic Assay for the Present Compounds
Assay animals: 6-8 weeks aged male SD rats (purchased from Vital River Laboratories), 6 rats per compound, weighing 220-250 g.
Dissolved in an appropriate solvent (5% DMSO+95% (6% HP-β-CD solution)).
Administration: See Table 2
Blood collection: each of about 100 μL whole blood were collected at 0 h, 0.083 h, 0.25 h, 0.5 h, 1 h, 2 h, 4 h, 6 h, 8 h and 24 h. The collected blood samples were centrifuged at 4° C. at 8000 rpm in a low temperature high-speed centrifuge (5415R, Eppendorf) for 6 mins to separate the blood plasm. The separated plasm was preserved at −80° C. in a refrigerator.
20 μL of the plasm was carefully taken out, to which was added 200 μL acetonitrile solution (containing internal standard KBP-1204 50 ng/ml). The plasm was subjected to a vortex at 1500 rpm for 3 mins, and then centrifuged at 12000 rpm for 5 mins. The supernatant was taken and was analyzed with LC-MS/MS (API4000, Applied Biosystems). Equation Absolute bioavailability F %=[AUC]INF(PO)*Dose(IV)/[AUC]INF(IV)*Dose(PO)

[2] = Urine glucose assay in normal rats; format: in vivo, Sprague-Dawley rats; details: normal male SD rats, 10 mg/Kg oral, glucose 5 g/kg, 24 h urine; for Urine glucose mass: standardized to 200 g body weight
Experimental: SPF-grade male Sprague-Dawley rats, 6-weeks aged, were used in this urine glucose assay. After the rats were fasted for 15 h, the rats were divided randomly into a blank control group, a model group, a positive drug group and a test drug group according to their body weights. The rats were put into metabolic cages where water was available but food was unavailable. The urines in this 24 hours were collected. Then, the drugs were orally administered (10 mg/Kg) and then the glucose was fed (5 g/kg) to the animals. Then the animals were put into metabolic cages. The rats were supplemented with food one hour after the drug administration and the glucose feeding, and then could freely contact the diets. The urines in this 24 hours were collected and recorded. The collected urines were centrifuged at 3000 rpm for 15 mins. The residues were removed. The supernatants were taken and the urine glucose contents therein were measured.
The urine glucose contents were standardized based on the body weight of 200 g. The data were expressed in average±standard deviation. The resulting values were analyzed with one-way ANOVA, and the comparisons between groups were conducted with one-way ANOVA and Dunnett test, where p<0.05 was considered to have a statistical significance.

human SGLT2 = target: T2, human SGLT2 (Homo sapiens, UniProt P31639); test: Inhibition of sodium dependent [14C]-AMG uptake in CHO cells stably expressing human SGLT2; format: cell-based; details: for IC50: CHO cells expressing human SGLT2, [14C]-AMG uptake; for Selectivity: SGLT1 IC50 versus SGLT2 IC50
T2 sequence (P31639 1-672): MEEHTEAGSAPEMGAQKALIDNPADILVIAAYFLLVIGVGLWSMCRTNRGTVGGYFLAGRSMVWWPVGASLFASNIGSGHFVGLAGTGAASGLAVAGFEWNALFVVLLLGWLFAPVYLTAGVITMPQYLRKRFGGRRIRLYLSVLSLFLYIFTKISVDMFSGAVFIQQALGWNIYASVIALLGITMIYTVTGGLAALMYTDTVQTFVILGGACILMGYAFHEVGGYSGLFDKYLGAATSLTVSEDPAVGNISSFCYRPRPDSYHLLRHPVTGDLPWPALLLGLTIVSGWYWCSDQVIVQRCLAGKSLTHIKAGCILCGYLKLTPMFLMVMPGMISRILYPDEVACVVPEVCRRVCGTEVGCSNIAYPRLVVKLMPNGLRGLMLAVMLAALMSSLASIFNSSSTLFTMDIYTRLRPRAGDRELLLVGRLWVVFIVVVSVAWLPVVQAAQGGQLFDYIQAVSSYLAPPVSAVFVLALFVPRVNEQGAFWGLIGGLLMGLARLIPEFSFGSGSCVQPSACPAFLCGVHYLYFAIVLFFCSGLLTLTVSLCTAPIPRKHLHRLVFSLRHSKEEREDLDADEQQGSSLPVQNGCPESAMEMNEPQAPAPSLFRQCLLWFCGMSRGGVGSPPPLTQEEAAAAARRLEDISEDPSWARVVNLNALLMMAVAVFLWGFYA
Experimental: as §1, §2, §3, §4, §5, §6

SMILES	IC50 (human SGLT1) [µM]	AUC(0-t) ([1]; IV, 2 mg/kg) [ng·h/mL]	AUC(0-inf) ([1]; IV, 2 mg/kg) [ng·h/mL]	half-life ([1]; IV, 2 mg/kg) [h]	bioavailability [1] [%]	AUC(0-t) ([1]; PO, 5 mg/kg) [ng·h/mL]	AUC(0-inf) ([1]; PO, 5 mg/kg) [ng·h/mL]	half-life ([1]; PO, 5 mg/kg) [h]	Urine volume [2] [mL]	Urine glucose mass [2] [mg/200 g]	IC50 (human SGLT2) [µM]	Selectivity (human SGLT2)
OC[C@H]1OC(c2ccc(Cl)c(Cc3ccc(OC4CC5CC5C4)cc3)c2)[C@H](O)[C@@H](O)[C@@H]1O (some centres unmarked) [Compound 4]	2.4	12400 ± 732	13500 ± 451	6.81 ± 0.74	87.2	26300 ± 1790	29500 ± 2720	7.33 ± 0.96	18.50	1197.79	–	–
OC[C@H]1OC(c2ccc(Cl)c(Cc3ccc(C4CCC5(CCC5)CC4)cc3)c2)[C@H](O)[C@@H](O)[C@@H]1O (some centres unmarked) [Compound 13]	29.1	6950 ± 100	7010 ± 148	3.75 ± 0.6	35.9 ± 7.78	6220 ± 1350	6290 ± 1360	3.36 ± 0.46	–	–	0.00399	73
OC[C@H]1OC(c2ccc(Cl)c(Cc3ccc(OC4C5COCC54)cc3)c2)[C@H](O)[C@@H](O)[C@@H]1O (some centres unmarked) [Compound 10]	1.89	972 ± 164	984 ± 167	0.88 ± 0.21	18.9 ± 6.52	430 ± 166	464 ± 160	1.77 ± 0.47	16.25	972.99	0.00316	596
OC[C@H]1O[C@@H](c2ccc(Cl)c(Cc3ccc(O[C@H]4CCOC4)cc3)c2)[C@H](O)[C@@H](O)[C@@H]1O [BI-10773, reference compound]	–	1090 ± 138	1100 ± 142	0.7 ± 0.07	16.5	426 ± 116	457 ± 114	1.33 ± 0.33	16.63	866.67	–	–

— patent US10253010B2, “C-glycoside derivative” (SIHUAN PHARMACEUTICAL HOLDINGS GROUP LTD., priority 2011, dated 2019)
